Measurements from patent US20240327381A1, “Compounds and Compositions for Selective Degradation of Engineered Proteins” (Celgene Corporation, priority 2023, published 2024).

Key:
Type in all cases: cell-based
[1] = biological target: T1, IKZF1 ZNF2_ZNF3 Q1F degron-tagged CD19 CAR (Homo sapiens, UniProt Q13422, Q146F); experiment: Degradation of Q1F degron-tagged CD19 CAR in Jurkat cells (flow cytometry of CAR levels); conditions: for DC50: Jurkat cells expressing CD19 CAR tagged with IKZF1 ZNF2_ZNF3 Q1F, 18 hours at 37° C., CAR levels normalized to untreated cells, read-out: Q1F Jurkat IC50; for Dmax: Ymax is the % protein degraded, Jurkat cells expressing Q1F degron-tagged CD19 CAR, 18 hours, read-out: Q1F Jurkat-YMax
T1 construct: ZNF2_ZNF3 Q1F degron (GERPFFCNQCGASFTQKGNLLRHIKLHSGEKPFKCHLCNYACRRRDALTGHLRTHS); fused on or other part: anti-CD19 scFv, CD28 transmembrane domain, 4-1BB costimulatory domain, CD3 zeta signaling domain (the CAR that carries the degron), and Nluc
T1 sequence (Q13422 whole entry Q146F, the tested form may be a part): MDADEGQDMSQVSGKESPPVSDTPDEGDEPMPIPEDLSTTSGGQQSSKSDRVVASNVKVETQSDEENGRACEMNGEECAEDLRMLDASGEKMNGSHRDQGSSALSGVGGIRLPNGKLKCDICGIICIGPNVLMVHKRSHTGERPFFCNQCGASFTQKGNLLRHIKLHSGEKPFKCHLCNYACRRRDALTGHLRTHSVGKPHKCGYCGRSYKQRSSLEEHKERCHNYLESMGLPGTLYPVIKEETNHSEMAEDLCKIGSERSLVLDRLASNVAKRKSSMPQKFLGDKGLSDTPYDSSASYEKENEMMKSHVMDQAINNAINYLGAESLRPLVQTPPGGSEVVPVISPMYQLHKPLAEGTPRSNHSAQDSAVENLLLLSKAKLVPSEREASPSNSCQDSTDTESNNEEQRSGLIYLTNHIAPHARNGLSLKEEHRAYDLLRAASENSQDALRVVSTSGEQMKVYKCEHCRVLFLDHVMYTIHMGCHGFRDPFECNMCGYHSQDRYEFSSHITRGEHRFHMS
Outline: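 Jurkat cells were lentivirally transduced with an anti-CD19 scFv/CD28 TM/4-1BB/CD3ζ CAR tagged with an IKZF1 ZNF2_ZNF3 Q1F degron–Nluc, then treated with compound titrations for 18 h at 37 °C. CAR surface levels were stained (20 min, 4 °C), read by flow cytometry and normalised to untreated cells. EC50 came from a four-parameter logistic fit; Ymin is the minimum % CAR remaining.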

Helios [2] = biological target: T2, Helios (Homo sapiens, UniProt Q9UKS7); experiment: Helios degradation in Jurkat/Helios/HiBit cells (Nano-Glo luminescence); conditions: 18 hr, read-out: Helios Jurkat Hibit IC50
T2 construct: endogenous in cells; host or cells: Jurkat cells, CRISPR/Cas9 knock-in of HiBit at the IKZF2 locus
T2 sequence (Q9UKS7 whole entry): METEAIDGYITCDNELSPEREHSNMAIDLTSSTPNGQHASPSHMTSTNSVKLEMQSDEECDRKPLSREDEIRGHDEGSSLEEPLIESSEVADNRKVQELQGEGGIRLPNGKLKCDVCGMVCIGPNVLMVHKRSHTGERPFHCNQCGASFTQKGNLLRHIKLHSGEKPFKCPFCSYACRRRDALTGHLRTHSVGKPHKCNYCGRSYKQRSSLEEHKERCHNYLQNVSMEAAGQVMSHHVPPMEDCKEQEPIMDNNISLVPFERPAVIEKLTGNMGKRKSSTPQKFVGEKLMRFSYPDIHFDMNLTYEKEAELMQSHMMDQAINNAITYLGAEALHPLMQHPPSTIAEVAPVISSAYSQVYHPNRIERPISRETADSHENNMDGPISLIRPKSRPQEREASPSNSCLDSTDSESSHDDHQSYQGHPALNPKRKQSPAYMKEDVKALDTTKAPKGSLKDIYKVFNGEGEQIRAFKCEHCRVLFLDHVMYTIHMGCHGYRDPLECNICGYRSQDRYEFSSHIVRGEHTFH
T2 sequence (Q96SW2 whole entry, further chain): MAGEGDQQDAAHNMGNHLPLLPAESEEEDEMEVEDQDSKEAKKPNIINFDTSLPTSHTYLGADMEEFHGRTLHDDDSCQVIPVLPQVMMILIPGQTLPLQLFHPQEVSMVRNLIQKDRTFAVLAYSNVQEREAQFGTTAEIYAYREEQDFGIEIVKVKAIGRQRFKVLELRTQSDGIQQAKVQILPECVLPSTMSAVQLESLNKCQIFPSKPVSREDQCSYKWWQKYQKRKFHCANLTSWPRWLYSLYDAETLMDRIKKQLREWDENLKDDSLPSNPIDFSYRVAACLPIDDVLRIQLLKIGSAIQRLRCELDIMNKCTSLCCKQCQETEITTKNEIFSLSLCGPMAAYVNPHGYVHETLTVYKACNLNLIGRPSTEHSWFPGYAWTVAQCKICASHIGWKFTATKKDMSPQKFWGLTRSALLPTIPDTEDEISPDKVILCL
T2 sequence (Q16531 whole entry partner): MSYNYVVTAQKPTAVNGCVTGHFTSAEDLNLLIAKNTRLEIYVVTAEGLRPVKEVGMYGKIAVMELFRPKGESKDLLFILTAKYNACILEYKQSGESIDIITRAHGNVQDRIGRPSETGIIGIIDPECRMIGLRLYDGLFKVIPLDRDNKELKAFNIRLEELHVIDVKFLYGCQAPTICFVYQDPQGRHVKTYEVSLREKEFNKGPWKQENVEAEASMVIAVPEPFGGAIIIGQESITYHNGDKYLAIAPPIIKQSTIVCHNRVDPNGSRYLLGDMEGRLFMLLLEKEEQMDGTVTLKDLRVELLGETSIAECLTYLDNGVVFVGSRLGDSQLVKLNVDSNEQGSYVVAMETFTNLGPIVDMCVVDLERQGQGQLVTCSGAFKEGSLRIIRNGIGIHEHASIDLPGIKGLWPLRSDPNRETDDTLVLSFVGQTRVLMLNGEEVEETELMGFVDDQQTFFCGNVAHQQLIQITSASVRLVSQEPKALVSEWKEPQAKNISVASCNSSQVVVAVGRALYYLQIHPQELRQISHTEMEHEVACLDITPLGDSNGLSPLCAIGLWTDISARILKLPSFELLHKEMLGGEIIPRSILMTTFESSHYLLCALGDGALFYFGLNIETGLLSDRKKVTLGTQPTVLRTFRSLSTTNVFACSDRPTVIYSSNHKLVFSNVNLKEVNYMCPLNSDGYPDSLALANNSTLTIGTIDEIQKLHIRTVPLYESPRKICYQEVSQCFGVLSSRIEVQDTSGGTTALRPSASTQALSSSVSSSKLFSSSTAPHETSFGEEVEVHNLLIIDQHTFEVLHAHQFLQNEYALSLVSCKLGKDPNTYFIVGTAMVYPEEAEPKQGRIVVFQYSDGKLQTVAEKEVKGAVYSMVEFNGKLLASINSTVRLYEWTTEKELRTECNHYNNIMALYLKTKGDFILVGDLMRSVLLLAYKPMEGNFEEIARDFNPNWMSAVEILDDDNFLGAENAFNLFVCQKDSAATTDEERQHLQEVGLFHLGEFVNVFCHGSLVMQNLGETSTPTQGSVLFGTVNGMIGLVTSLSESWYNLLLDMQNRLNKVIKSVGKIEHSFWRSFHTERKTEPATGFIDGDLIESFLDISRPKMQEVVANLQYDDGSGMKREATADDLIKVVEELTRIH
Outline: (§1)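 Jurkat cells carrying CRISPR-knocked-in C-terminal HiBit-tagged endogenous IKZF2 were treated with compound in DMEM/10% FCS (10,000 cells/well) for 18 h at 37 °C. HiBit signal was read by Nano-Glo luminescence after 30 min at RT. EC50 for degradation came from a four-parameter logistic fit, with Ymax as % protein degraded.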

Helios [3] = biological target: T3, Helios (Homo sapiens, UniProt Q96SW2+Q9UKS7); experiment: as above; conditions: for Helios Jurkat Hibit YMax: Ymax is the % protein degraded, 18 hr
T3 construct: endogenous in cells; host or cells: Jurkat cells, CRISPR/Cas9 knock-in of HiBit at the IKZF2 locus
T3 sequence (Q9UKS7 whole entry): as the sequence (Q9UKS7 whole entry) above
T3 sequence (Q96SW2 whole entry): as the sequence (Q96SW2 whole entry, further chain) above
T3 sequence (Q16531 whole entry partner): as the sequence (Q16531 whole entry partner) above
Outline: as §1

SMILES | DC50 [1] [µM] | Dmax [1] [%] | DC50 (Helios [2]) [µM] | Helios Jurkat Hibit YMax (Helios [3]) [%] | DC50 (Helios [3]; read-out: Helios Jurkat Hibit IC50, 18 hr) [µM]
O=C1CCC(N2Cc3c(cc(F)c(C4(O)CCN(Cc5ccc(C(F)(F)F)cc5)CC4)c3F)C2=O)C(=O)N1 (stereo not drawn) [Compound 11, 3-(4,6-difluoro-5-(4-hydroxy-1-(4-(trifluoromethyl)benzyl)piperidin-4-yl)-1-oxoisoindolin-2-yl)piperidine-2,6-dione] | 0.00491 | 83.5 | – | – | ≥ 10
CC1(C)Cc2cccc(CN3CCN(Cc4c(F)cc5c(c4F)CN(C4CCC(=O)NC4=O)C5=O)CC3)c2O1 (stereo not drawn) [Compound 75, 3-(5-((4-((2,2-dimethyl-2,3-dihydrobenzofuran-7-yl)methyl)piperazin-1-yl)methyl)-4,6-difluoro-1-oxoisoindolin-2-yl)piperidine-2,6-dione] | 0.00332 | 89 | 0.0651 | 65.5325 | –
O=C1CCC(N2Cc3c(cc(F)c(CN4CCN(Cc5ccc6c(c5)OCCO6)CC4)c3F)C2=O)C(=O)N1 (stereo not drawn) [Compound 76, 3-(5-((4-((2,3-dihydrobenzo[b][1,4]dioxin-6-yl)methyl)piperazin-1-yl)methyl)-4,6-difluoro-1-oxoisoindolin-2-yl)piperidine-2,6-dione] | 0.00489 | 88.8 | 0.0063 | 72.1901 | –
O=C1CCC(N2Cc3c(cc(F)c(C4(O)CCN(Cc5ccc(C(F)(F)F)cc5O)CC4)c3F)C2=O)C(=O)N1 (stereo not drawn) [Compound 22, 3-(4,6-difluoro-5-(4-hydroxy-1-(2-hydroxy-4-(trifluoromethyl)benzyl)piperidin-4-yl)-1-oxoisoindolin-2-yl)piperidine-2,6-dione] | 0.0143 | 80 | ≥ 10 | – | –
CN(C)c1ccc(CN2CCC(c3c(F)cc4c(c3F)CN(C3CCC(=O)NC3=O)C4=O)CC2)cc1 (stereo not drawn) [Compound 110, 3-(5-(1-(4-(dimethylamino)benzyl)piperidin-4-yl)-4,6-difluoro-1-oxoisoindolin-2-yl)piperidine-2,6-dione] | 0.00112 | 90.5 | ≥ 10 | – | –
CCCCN1CCC(c2c(F)cc3c(c2F)CN(C2CCC(=O)NC2=O)C3=O)CC1 (stereo not drawn) [Compound 115, 3-(5-(1-butylpiperidin-4-yl)-4,6-difluoro-1-oxoisoindolin-2-yl)piperidine-2,6-dione] | 0.00666 | 79.7 | ≥ 10 | – | –

Continued, in another order:

DC50 [1] [µM] | Dmax [1] [%] | DC50 (Helios [2]) [µM] | Helios Jurkat Hibit YMax (Helios [3]) [%] | SMILES | DC50 (Helios [3]; read-out: Helios Jurkat Hibit IC50, 18 hr) [µM]
0.000112 | 91.8 | 6520 | 50.8729 | Cc1ccc(CN2CCC(c3c(F)cc4c(c3F)CN(C3CCC(=O)NC3=O)C4=O)CC2)cc1F (stereo not drawn) [Compound 46, 3-(4,6-difluoro-5-(1-(3-fluoro-4-methylbenzyl)piperidin-4-yl)-1-oxoisoindolin-2-yl)piperidine-2,6-dione] | –
0.000103 | 93 | 3.31 | 55.0199 | O=C1CCC(N2Cc3c(cc(F)c(C4CCN(Cc5ccc6[nH]ncc6c5)CC4)c3F)C2=O)C(=O)N1 (stereo not drawn) [Compound 63, 3-(5-(1-((1H-indazol-5-yl)methyl)piperidin-4-yl)-4,6-difluoro-1-oxoisoindolin-2-yl)piperidine-2,6-dione] | –
0.00267 | 92.9 | 0.012 | 64.8253 | Cc1cc(-c2cc(F)c3c(c2)CN(C2CCC(=O)NC2=O)C3=O)nc(N)c1C (stereo not drawn) [Compound 16, 3-(5-(6-amino-4,5-dimethylpyridin-2-yl)-7-fluoro-1-oxoisoindolin-2-yl)piperidine-2,6-dione] | –
0.000204 | 93.4 | 0.152 | 59.5442 | O=C1CCC(N2Cc3c(cc(F)c(C4CCN(Cc5ccc6[nH]ccc6c5)CC4)c3F)C2=O)C(=O)N1 (stereo not drawn) [Compound 61, 3-(5-(1-((1H-indol-5-yl)methyl)piperidin-4-yl)-4,6-difluoro-1-oxoisoindolin-2-yl)piperidine-2,6-dione] | –
0.000576 | 93.4 | ≥ 10 | – | O=C1CCC(N2Cc3c(cc(F)c(C4CCN(Cc5ccc6ncsc6c5)CC4)c3F)C2=O)C(=O)N1 (stereo not drawn) [Compound 18, 3-(5-(1-(benzo[d]thiazol-6-ylmethyl)piperidin-4-yl)-4,6-difluoro-1-oxoisoindolin-2-yl) piperidine-2,6-dione] | –
